The text below walks through data of ChEMBL document CHEMBL2401673, “Design, synthesis, functional and structural characterization of an inhibitor of N-acetylneuraminate-9-phosphate phosphatase: observation of extensive dynamics in an enzyme/inhibitor complex” (Bioorg Med Chem Lett, 2013).

SMILES strings stand for the structures.

The nature of data set [1]: Dissociation constant, pKa of the compound by potentiometric titration method. In kind it is physicochemical.
Data set [2] addresses T1, N-acylneuraminate-9-phosphatase (Homo sapiens, UniProt Q8TBE9).
T1 sequence (Q8TBE9 whole entry): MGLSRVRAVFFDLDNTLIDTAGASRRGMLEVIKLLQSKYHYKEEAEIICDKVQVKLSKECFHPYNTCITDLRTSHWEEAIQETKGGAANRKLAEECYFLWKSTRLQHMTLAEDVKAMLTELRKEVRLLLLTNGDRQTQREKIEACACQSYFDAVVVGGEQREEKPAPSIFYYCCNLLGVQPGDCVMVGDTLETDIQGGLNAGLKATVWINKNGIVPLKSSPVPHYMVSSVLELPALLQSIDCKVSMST
In words: Reversible inhibition of recombinant HDHD4 (unknown origin) using Neu5Ac-9-P as substrate assessed as release of phosphate after 30 mins by maiachite green assay.

Data set [3] addresses T1, N-acylneuraminate-9-phosphatase. In words: Inhibition of recombinant HDHD4 (unknown origin) using Neu5Ac-9-P as substrate assessed as release of phosphate after 30 mins by maiachite green assay.

Broadly, the pKa is the pH at which an ionisable group is half protonated. A high value points to a weaker acid or stronger base. As a reminder, the IC50 is the concentration that gives 50% inhibition.

In the case of `CC(=O)N[C@H]1[C@H]([C@H](O)[C@H](O)CO)O[C@](O)(C(=O)O)C[C@@H]1O`, the pKa in data set [1] amounted to 3.2.

As to `CC(=O)N[C@H]1[C@H]([C@H](O)[C@H](O)CCP(=O)(O)O)O[C@](O)(C(=O)O)C[C@@H]1O`, the IC50 in data set [2] turned out to be 11 µM. The compound also showed a pKa in data set [1] of 3.5.

Take `CO[C@@]1(C(=O)O)C[C@H](O)[C@@H](NC(C)=O)[C@H]([C@H](O)[C@H](O)CCP(=O)(O)O)O1`: the 50% inhibitory concentration (IC50) in data set [3] is 49.8 µM.

For `CC(=O)N[C@H]1[C@H]([C@H](O)[C@H](O)CCC(=O)O)O[C@](O)(C(=O)O)C[C@@H]1O`, the IC50 in data set [3] was more than 100 µM.

The compound `CC(=O)N[C@H]1[C@H]([C@H](O)[C@H](O)COP(=O)(O)O)O[C@](O)(C(=O)O)C[C@@H]1O` yielded a pKa in data set [1] of 3.6.

For `COC(=O)[C@]1(OC)C[C@H](O)[C@@H](NC(C)=O)[C@H]([C@H](O)[C@H](O)CCP(=O)(O)O)O1`, the IC50 in data set [3] amounted to 93.7 µM.
